Series [1] concerns yeast strain BY4742. Briefly: Detection of leucine by bioluminescence of leucine-auxotrophic BY4742 carrying pRS426-Lux (Example 4). The series is classed as cell-based, Saccharomyces cerevisiae. The settings on record: CSM-Leu-URA medium, leucine added after 5 h incubation, FIG. 4. The protocol: (§1) D-Luciferin sodium salt (Carl Roth, Germany) was dissolved in 0.1 M Na2 HPO4-citrate buffer pH 5 to a final luciferin concentration of 1 mM. 100 μl of an overnight yeast culture was adjusted depending on the experimental question to a suitable starting OD600 of around 1.0 or less in CSM medium. 100 μl of yeast cells, 25 μl of a test solution (e.g., amino acid), and 25 μl of 1 mM luciferin solution were added in this order to a well of a black 96-well microtiter plate with a transparent bottom (Microplate, 96 well, PS, F-Bottom (Chimney Well) μClear®, Black, Med. Binding; Greiner bio-one, Germany) for a measurement. Measurements were performed using a Tristar2S Platereader (Berthold, Germany) at a constant temperature of 28° C.
The yeast strain BY4742 used by the inventors has several auxotrophies, including leucine auxotrophy, which makes this strain useful for leucine detection. For this purpose, the strain was grown overnight in CSM-URA medium. […] After 5 h of incubation, a defined amount of leucine was added and luminescence was subsequently measured (FIG. 4). […] The relationship between available leucine and measured bioluminescence behaves in a concentration-dependent manner within a certain concentration range, so that the leucine concentration can be correlated and measured with the bioluminescence.

Series [2] deals with S. cerevisiae strain BY4742. Briefly: Luminescence comparison of bacterial luciferase construct with Firefly luciferase in BY4742 (Example 2). The series is classed as cell-based, Saccharomyces cerevisiae. The protocol: as §1
The luciferase from Photinus pyralis was chosen for comparison because it is most commonly used in bioanalysis (see FIG. 6).
After both plasmids have the same genetic requirements, such as FBA1 promoter and terminator, the same vector backbone and were also transformed into BY4742, both plasmids could be directly compared. The experiment was performed twice with three technical replicates each time. The cultures were grown overnight at 28° C. and were each diluted with 50 μl of fresh medium (YPD medium). For the produced prototype (nucleic acid according to the invention, SEQ ID NO: 7), water was added instead of 50 μl of the luciferin solution (2 mM final concentration).
The luminescence of the Firefly luciferase is about 100,000 RLU. In contrast, the […]. After 5.4 h, only a low luminescence of 6893 can be measured (see FIG. 2D). The CSM-URA plates were photographed in daylight (FIG. 2A) and in complete darkness (FIG. 2B) by a commercial photographic camera. The naked eye was also able to perceive the light produced by the yeasts.

In the case of `CC(C)C[C@H](N)C(=O)O` [leucine], in series [1], the “leucine concentration from which organisms grow and light signal increases regardless of concentration” value is reported as > 49 mg/L; the “leucine concentration with limiting effect on cell metabolism and maximum possible bioluminescence” value is reported as “less than 20 mg/L”.

For the compound “Firefly luciferase: plasmid encoding Photinus pyralis luciferase under the FBA1 promoter and terminator, same pRS426 backbone”, in series [2] (BY4742, FBA1 promoter/terminator, YPD, luciferin 2 mM added only for Firefly, FIG. 2D), the initial luminescence is on record as 52,475 RLU. In addition, in series [2] (BY4742, FIG. 2D, luciferin added only for Firefly), the “luminescence after 5.4 h” value worked out at 6893 RLU. Further, the “luminescence after 1.7 h” value in series [2] (BY4742, luciferin 2 mM final, FIG. 2D) is given as 19,143 RLU.

Values taken from patent US12644104B2, “Detection of environmental influences by bioluminescence” (priority 2020, dated 2026).
